The results in this text go back to patent US10301320B2, “Compositions and methods of modulating 15-PGDH activity” (CASE WESTERN RESERVE UNIVERSITY, priority 2012, dated 2019).

Usually inhibition stands for the drop in the measured response relative to a control, in per cent.

This assay deals with recombinant 15-PGDH protein (Homo sapiens (Human), UniProt P15428). Briefly: Inhibition of enzymatic activity of recombinant 15-PGDH in vitro.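 Note: activity of recombinant human 15-PGDH assayed in vitro using PGE2 as the substrate.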 It counts as biochemical. The note with it: read-out: Enzyme inhibition % ([…]), recombinant 15-PGDH, […] compound.
Chain of recombinant 15-PGDH protein (P15428 whole entry): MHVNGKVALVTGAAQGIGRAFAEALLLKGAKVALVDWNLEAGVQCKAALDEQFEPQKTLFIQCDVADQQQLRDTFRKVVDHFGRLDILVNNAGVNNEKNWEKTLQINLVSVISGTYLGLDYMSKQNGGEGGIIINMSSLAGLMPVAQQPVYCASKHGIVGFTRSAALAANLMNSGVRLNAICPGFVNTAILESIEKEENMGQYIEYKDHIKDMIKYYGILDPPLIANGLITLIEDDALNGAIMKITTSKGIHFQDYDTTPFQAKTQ
Where [1] appears, read: read-out: Enzyme inhibition % (2.5 μM).
Setting [2] is: read-out: Enzyme inhibition % (7.5 μM).

Structures are written as SMILES. Where two headings read alike, the source gives them in different places.

As for `COc1ccc(OC)c(N(C(C)C(=O)Nc2cccnc2)S(=O)(=O)c2ccccc2)c1` (stereo not drawn) [SW202991], the inhibition at […] under setting [1] is -14.7% and the inhibition at […] under setting [2] is -6%.
Taken in the same sequence, the figures for `COc1ccc(OC)c(N(CC(=O)N2CCCCC2)S(=O)(=O)c2ccccc2)c1` [SW131633] were 23.1% and 35.2%.
Taken in the same sequence, the figures for `COc1cccc(NC(=O)CN(c2cc(OC)ccc2OC)S(=O)(=O)c2ccccc2)c1` [SW202976] were 7.87% and 29.8%.
On to `COc1ccc(OC)c(N(CC(=O)Nc2cccnc2)S(=O)(=O)c2ccccc2Cl)c1` [SW202949], for which the inhibition at […] is 12.5% under setting [1] and 34.4% under setting [2].
Regarding `COc1ccc(OC)c(CN(CC(=O)Nc2cccnc2)S(=O)(=O)c2ccccc2)c1` [SW203688], the inhibition at […] under setting [1] turned out to be 13.1% and the inhibition at […] under setting [2] was 40%.
Consider `CCCOC(=O)CN(c1cc(OC)ccc1OC)[S@SP3](=O)(=O)c1ccccc1` [SW202986], for which the inhibition at […] by setting is: under setting [1], -2.22%; under setting [2], 2.58%.
Take `COc1ccc(OC)c(N(CC(=O)Nc2cccnc2)S(=O)(=O)c2c(C)cc(C)cc2C)c1` [SW202953]: the inhibition at […] by setting is: under setting [1], 8.81%; under setting [2], 15.1%.
Regarding `COc1ccc(OC)c(N(CC(=O)Nc2ccncc2)S(=O)(=O)c2ccccc2)c1` [SW202938], the inhibition at […] is, setting by setting: under setting [1], 52.7%; under setting [2], 75.6%.
Taken in the same sequence, the figures for `COc1ccc(OC)c(N(CC(=O)Nc2cccnc2C)S(=O)(=O)c2ccccc2)c1` [SW202968] were -7.09% and 0.78%.
Consider `COc1ccc(OC)c(N(CC(=O)Nc2ccncc2F)S(=O)(=O)c2ccccc2)c1` [SW208004], for which the inhibition at […] is, setting by setting: under setting [1], 52.3%; under setting [2], 57%.
Taken in the same sequence, the figures for `COc1ccc(OC)c(N(CC(=O)Nc2ccnnc2)S(=O)(=O)c2ccccc2)c1` [SW203685] were 44.3% and 73.3%.
As for `COc1ccc(OC)c(N(CC(=O)N2CCCCCC2)S(=O)(=O)c2ccccc2)c1` [SW208000], the inhibition at […] was 5.82% under setting [1] and 12.5% under setting [2].
As to `COc1ccc(OC)c(N(CC(=O)N2CCCC2)S(=O)(=O)c2ccccc2)c1` [SW208001], the inhibition at […] runs as follows: under setting [1], 21.8%; under setting [2], 27.7%.
For `COc1ccc(OC)c(N(CC(=O)Nc2ccccc2OC)S(=O)(=O)c2ccccc2)c1` [SW202965], the inhibition at […] is, setting by setting: under setting [1], 11.3%; under setting [2], 33.1%.
Regarding `COc1ccc(OC)c(N(CC(=O)Nc2ccnc(Cl)c2)S(=O)(=O)c2ccccc2)c1` [SW202946], the inhibition at […] was 81.6% under setting [1] and 89.8% under setting [2].
In the case of `COc1ccc(OC)c(N(CC(=O)Nc2cccnc2)S(=O)(=O)c2ccccc2C#N)c1` [SW202945], the inhibition at […] runs as follows: under setting [1], 8.83%; under setting [2], 11.1%.
Turning to `COc1ccc(OC)c(N(CC(=O)Nc2ccc(C)nc2)[S@SP3](=O)(=O)c2ccccc2)c1` [SW202988], the inhibition at […] under setting [1] is 10.3% and the inhibition at […] under setting [2] was found to be 33.7%.
For `COc1ccc(OC)c(N(CC(=O)OC(C)C)S(=O)(=O)c2ccccc2)c1` [SW202971], the inhibition at […] runs as follows: under setting [1], -0.72%; under setting [2], -13.2%.
For `COc1ccc(OC)c(N(CC(=O)Nc2cnccc2C)S(=O)(=O)c2ccccc2)c1` [SW202967], in that order: -11.6% and 0.94%.
`COc1ccc(OC)c(N(CC(=O)N2CCc3ccccc32)S(=O)(=O)c2ccccc2)c1` [SW208003]: the inhibition at […] came out at 15.2% under setting [1] and 20.9% under setting [2].
In the case of `COC(=O)CN(c1cc(OC)ccc1OC)S(=O)(=O)c1ccccc1` [SW202980], the inhibition at […] under setting [1] was -4.19% and the inhibition at […] under setting [2] stood at 1.44%.
For the compound `COc1ccc(OC)c(N(CC(=O)Nc2ccccc2)S(=O)(=O)c2ccccc2)c1` [SW203687], the inhibition at […] under setting [1] amounted to 15.1% and the inhibition at […] under setting [2] was found to be 33.5%.
In the case of `COc1ccc(OC)c(NCC(=O)Nc2cccnc2)c1` [SW202948], the inhibition at […] came to 28.3% under setting [1] and 56.7% under setting [2].
Turning to `COc1ccc(OC)c(N(CC(=O)Nc2cccnc2)S(=O)(=O)c2cccc(C)c2)c1` [SW203684], the inhibition at […] was determined as 36.4% under setting [1] and 64.7% under setting [2].
For the compound `COc1ccc(OC)c(N(CC(=O)Nc2cccnc2)S(=O)(=O)c2ccc(C(C)=O)cc2)c1` [SW202950], the inhibition at […] under setting [1] was 46.3% and the inhibition at […] under setting [2] was 56.4%.
For the compound `COc1ccc(OC)c(N(CC(=O)N2CCCC2=O)S(=O)(=O)c2ccccc2)c1` [SW208002], the inhibition at […] runs as follows: under setting [1], 34.7%; under setting [2], 59.2%.
In the case of `CNC(=O)CN(c1cc(OC)ccc1OC)S(=O)(=O)c1ccccc1` [SW203682], the inhibition at […] is, setting by setting: under setting [1], 15.7%; under setting [2], 36.2%.
Taken in the same sequence, the figures for `COc1ccc(OC)c(N(CC(=O)Nc2cncc(C)c2)S(=O)(=O)c2ccccc2)c1` [SW202974] were -4.42% and 24.9%.
Take `COc1ccc(OC)c(N(CC(N)=O)S(=O)(=O)c2ccccc2)c1` [SW131635]: the inhibition at […] is 11.8% under setting [1] and 35.4% under setting [2].
For `COc1ccc(OC)c(N(CC(=O)Nc2cncc(Cl)c2)S(=O)(=O)c2ccccc2)c1` [SW202990], the inhibition at […] by setting is: under setting [1], 22.9%; under setting [2], 47.2%.
For `COc1ccc(OC)c(N(CC(=O)Nc2cnccn2)S(=O)(=O)c2ccccc2)c1` [SW203681], the inhibition at […] runs as follows: under setting [1], 36.8%; under setting [2], 64.9%.
Take `COc1ccc(S(=O)(=O)N(CC(=O)Nc2ccncc2)c2cc(OC)ccc2OC)cc1` [SW202989]: the inhibition at […] under setting [1] was 81.3% and the inhibition at […] under setting [2] is 89.9%.
`COc1ccc(OC)c(N(CC(=O)N2CCCc3ccccc32)S(=O)(=O)c2ccccc2)c1` [SW208006]: the inhibition at […] under setting [1] is 15.7% and the inhibition at […] under setting [2] came out at 24.8%.
As for `COc1ccc(OC)c(N(CC(=O)Nc2nccs2)S(=O)(=O)c2ccccc2)c1` [SW203691], the inhibition at […] under setting [1] was 2.62%.
As for `COc1ccc(OC)c(N(CC(=O)Nc2cccnc2)S(=O)(=O)c2ccccc2C)c1` [SW202943], the inhibition at […] is, setting by setting: under setting [1], -7.42%; under setting [2], 21.8%.
For `COc1ccc(OC)c(N(CC(=O)OC(C)(C)C)S(=O)(=O)c2ccccc2)c1` [SW202979], in that order: 3.92% and 6.24%.
For `COc1ccc(S(=O)(=O)N(CC(=O)Nc2cccnc2)c2cc(C(F)(F)F)ccc2C(F)(F)F)cc1` [SW208008], in that order: 58.7% and 70.9%.
Taken in the same sequence, the figures for `COc1ccc(OC)c(N(CC(=O)Nc2cccnc2)C(C)=O)c1` [SW202952] were 29% and 57%.
Consider `COc1ccc(OC)c(N(CC(=O)Nc2ccnc(C)c2)S(=O)(=O)c2ccccc2)c1` [SW202966], for which the inhibition at […] is, setting by setting: under setting [1], 44.7%; under setting [2], 61.4%.
Regarding `COc1ccc(OC)c(N(CC(=O)Nc2ccccc2C)S(=O)(=O)c2ccccc2)c1` [SW202975], the inhibition at […] under setting [1] was -14.8% and the inhibition at […] under setting [2] worked out at 4.53%.
For `COc1ccc(OC)c(N(CC(=O)Nc2cccnc2)S(=O)(=O)c2ccccc2C(F)(F)F)c1` [SW202944], in that order: 28.3% and 57.8%.
For `COc1ccc(OC)c(N(CC(=O)Nc2ccccn2)S(=O)(=O)c2ccccc2)c1` [SW202941], in that order: 10.9% and 35.6%.
For `COc1ccc(OC)c(N(CC(=O)Nc2cccnc2)S(=O)(=O)c2ccc(C)cc2)c1` [SW202939], the inhibition at […] is, setting by setting: under setting [1], 53.5%; under setting [2], 78.3%.
For `CCOC(=O)CN(c1cc(OC)ccc1OC)S(=O)(=O)c1ccccc1` [SW202951], in that order: -15.4% and -8.59%.
Turning to `COc1ccc(OC)c(N(CC(=O)Nc2ccccc2Cl)S(=O)(=O)c2ccccc2)c1` [SW202987], the inhibition at […] was found to be 4.61% under setting [1] and 6.13% under setting [2].
Taken in the same sequence, the figures for `COc1ccc(OC)c(N(CC(=O)OC2CCCCC2)S(=O)(=O)c2ccccc2)c1` [SW202978] were 4.14% and 3.12%.
Taken in the same sequence, the figures for `COc1ccc(OC)c(N(CC(=O)Nc2cccc(C)c2)S(=O)(=O)c2ccccc2)c1` [SW202969] were 0.91% and 9.43%.
With `COc1ccc(OC)c(N(CC(=O)Nc2cccc(Cl)c2)S(=O)(=O)c2ccccc2)c1` [SW202985], the inhibition at […] runs as follows: under setting [1], 13.8%; under setting [2], 30.9%.
For `COc1ccc(OC)c(N(CC(=O)Nc2ccnc(F)c2)S(=O)(=O)c2ccccc2)c1` [SW208005], the inhibition at […] by setting is: under setting [1], 44.1%; under setting [2], 52%.
On to `COc1ccc(OC)c(N(CC(=O)Nc2cccnc2Cl)S(=O)(=O)c2ccccc2)c1` [SW202973], for which the inhibition at […] is, setting by setting: under setting [1], 3.3%; under setting [2], 13.6%.
As to `COc1ccc(OC)c(N(CC(=O)Nc2cccnn2)S(=O)(=O)c2ccccc2)c1` [SW203680], the inhibition at […] reads like this: under setting [1], 34.8%; under setting [2], 62.1%.
Consider `COc1ccc(OC)c(N(CC(=O)O)S(=O)(=O)c2ccccc2)c1` [SW122063], for which the inhibition at […] is, setting by setting: under setting [1], -12.2%; under setting [2], -10.5%.
For the compound `COc1ccc(OC)c(N(CC(=O)Nc2cc(C)cnc2Cl)S(=O)(=O)c2ccccc2)c1` [SW202972], the inhibition at […] reads like this: under setting [1], -6.29%; under setting [2], -2.94%.
Taken in the same sequence, the figures for `COc1ccc(OC)c(N(CC(=O)Nc2ccc(Cl)nc2)S(=O)(=O)c2ccccc2)c1` [SW202970] were 17.5% and 48%.
For `COc1ccc(OC)c(N(CC(=O)Nc2cccnc2)S(=O)(=O)c2ccccc2F)c1` [SW202947], in that order: 28.8% and 59.2%.
As to `COc1ccc(OC)c(N(CC(=O)N(C)c2cccnc2)S(=O)(=O)c2ccccc2)c1` [SW203686], the inhibition at […] came out at 14.9% under setting [1] and 34.2% under setting [2].
